Consider 2 molecules from patent publication US10106554B2, “7-(morpholinyl)-2-(N-piperazinyl) methyl thieno [2, 3-C] pyridine derivatives as anticancer drugs” (NATCO PHARMA LIMITED, priority 2014, dated 2018).

Data set [1] in a line: MTD (Maximum Tolerated Dose) study in mice, OECD procedure. The settings on record: both sexes, mouse, in vivo, oral; p.o, single dose, 14 days observation, Swiss Albino mice. The procedure: The method was carried out as per OECD procedure. The study was carried out using 5 (2 Male+3 Female) Swiss Albino Mice weighing between 18-30 gms. All the animals were fasted for 3 hrs prior to the oral administration of the drug. After preparing the sample administer immediately to their body all the animals according weight. […] At the end of 14 days all the surviving animals were autopsied and stomach were cut opened and observed for absorption of the drug through the GIT. The result is given in FIG. 1. • COMPOUND 2: MTD>2000 mg.kg, p.o (Single dose 14 days observation) • COMPOUND 1: MTD=500 mg/kg, p.o (Single dose 14 days observation) b. Antagonism of MIAPaca—2 Induced Tumor in Nude Mice: […]

Data set [2] has as its system NCI-H292 induced tumor (Erlotinib resistant lung cancer). Put plainly: Antagonism of NCI-H292 induced tumor in nude mice (histopathology). It is filed as in vivo. Conditions: 50 mg/kg for 15 days; histopathology (4/5); positive control tumor present in all 5 animals. The procedure:
The study was carried out with 15 Nude Mice (8 Male+7 Female).Weighing of Nude Mice were taken initially before inoculation of cell line and made into groups. Grouping as follows:
Group I: Positive control (4 Male+1 Female)
The cell line was inoculated to Nude Mice subcutaneously to the right hind limb flank at a strength of 6.25×10^5 cells/0.2 ml. […] The tumor volume was measured using the formula […] (l=length of tumor & w=width of tumor).When the mean tumor volume was recorded above 400 mm^3, the treatment with the above drugs will be started. […] Weight of Nude Mice Was taken daily before dosing and tumor measurement was done on alternative days using digital Vernier caliper. […] Mice dead during experimental schedule, the tumor with skin and liver were collected and stored in 10% buffered formalin .All the organs after collection were sent for histopathology.

The subject of the next data set is MIAPaca-2 induced tumor. In words: Antagonism of MIAPaca-2 induced tumor in nude mice. It is filed as in vivo. The settings on record: for mean tumor area: p.o daily for 30 days, control 33.13 mm^2. The procedure: This study was carried out with 20 Male Nude Mice. Weighing of Nude Mice were taken initially before inoculation of cell line and made into four groups.
Group-I: Positive control (5 Male)
Group-II: COMPOUND 2 (5 Male) (200 mg/kg, p.o)
Group-III: COMPOUND 1 (5 Male) (50 mg/kg, p.o)
Group-IV: Standard (5 Male) (Erlotinib hydrochloride—50 mg/kg, p.o & Gemcitabine hydrochloride—120 mg/kg, i.p.)
The cell line was inoculated to Nude Mice subcutaneously to the right hind limb flank at a strength of 1×10^7 cells/0.2 ml. […] The tumor volume was measured using the formula ½1×w^2 (l=length of tumor & w=width of tumor). When the mean tumor volume was recorded above 400 mm^3, the treatment with the above drugs were started. The above drugs were administered orally daily for 30 days, except Gemcitabine hydrochloride was administered on 1st and 3rd day of each week. Weight of Nude Mice was taken daily before dosing and tumor measurement was done on alternative days using digital Vernier caliper. Surviving animals were sacrificed after the dosing is complete for 30 days and organs (tumor with skin and pancreas) were collected.
Mice dead during experimental schedule, the tumor with skin and pancreas were collected and tumor with skin was stored in 10% buffered formalin and pancreas were stored in Bouin's solution. All the organs after collection were sent for histopathology.

Where [3] appears, read: 200 mg/kg, p.o, 5 mice, control 40%.

Molecule `Cc1c(CN2CCN(S(C)(=O)=O)CC2)sc2c(N3CCOCC3)nc(-c3cnc(N)nc3)cc12` [COMPOUND 1, 5-[3-methyl-2-[(4-methylsulfonylpiperazin-1-yl)methyl]-7-morpholino-thieno[2,3-c]pyridin-5-yl]pyrimidin-2-amine] had an MTD at 14 days in data set [1] of 500 mg/kg. Also, in data set [2], the “clearance of tumor, animals” value amounted to 80%. In the data set on MIAPaca-2 induced tumor (50 mg/kg), this molecule gave a mean tumor area of 8.60 mm^2. In addition, in the data set on MIAPaca-2 induced tumor (50 mg/kg, p.o, 5 mice), the “remaining tumors showing no much activity (no invasion)” value came to 80% and the “tumors showing invasion into underlying muscle” value came out at 20%.
As for `CS(=O)(=O)N1CCN(Cc2cc3cc(-c4cnc(N)nc4)nc(N4CCOCC4)c3s2)CC1` [COMPOUND 2, 5-[2-[(4-methylsulfonylpiperazin-1-yl)methyl]-7-morpholino-thieno[2,3-c]pyridin-5-yl]pyrimidin-2-amine], the MTD at 14 days in data set [1] is over 2000 mg/kg. Further, in the data set on MIAPaca-2 induced tumor (200 mg/kg), the mean tumor area was found to be 10.90 mm^2. Further, in the data set with MIAPaca-2 induced tumor (setting [3]), the “tumors localized, no tumor invasion seen” value stood at 60% and the “tumors showing vascular invasion” value was 40%.
